From US11319298B2 (Merck Sharp & Dohme Corp., priority 2016, dated 2022)

Biological target: T1, human M4 muscarinic acetylcholine receptor (Homo sapiens, UniProt P08173)
T1 construct: expressed in transfected cells; host or cells: CHO-K1
T1 sequence (P08173 1-479): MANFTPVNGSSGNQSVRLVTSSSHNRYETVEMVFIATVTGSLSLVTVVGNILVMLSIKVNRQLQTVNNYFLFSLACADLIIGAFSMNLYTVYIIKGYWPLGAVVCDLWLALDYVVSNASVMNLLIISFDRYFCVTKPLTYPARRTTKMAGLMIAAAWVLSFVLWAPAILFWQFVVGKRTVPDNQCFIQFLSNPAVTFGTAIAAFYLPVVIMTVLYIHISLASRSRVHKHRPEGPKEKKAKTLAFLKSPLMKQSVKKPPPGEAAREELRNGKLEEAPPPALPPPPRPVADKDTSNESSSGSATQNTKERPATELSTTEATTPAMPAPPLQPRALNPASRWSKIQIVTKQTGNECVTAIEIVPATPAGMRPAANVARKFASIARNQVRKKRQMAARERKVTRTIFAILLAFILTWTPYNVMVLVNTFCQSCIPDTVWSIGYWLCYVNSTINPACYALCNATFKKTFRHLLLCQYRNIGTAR
Assay: human FLIPR-based M4 PAM assay, CHO-K1 cells stably transfected with human M4 receptor and chimeric G-protein Gαqi5
Format: cell-based
Details: inflection point (IP) of dose response curve; acetylcholine added at 20% of maximum response; CHO-K1 human M4/Gαqi5, FLIPR Tetra
How it was run: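 CHO-K1 cells were loaded with calcium dye at 37 °C for ~1 h. Fluorescence (ex 470–495/em 515–575 nm) was read for 4 min after test compound at increasing concentrations, then 3.5 min after acetylcholine at an EC20; sometimes a third addition at EC70 followed. The value is the inflection point of a 4-parameter logistic fit.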

| SMILES | EC50 |
| --- | --- |
| COc1ccc(OC2CCN(c3nnc(C(=O)NCc4nncs4)cc3C)CC2)cn1 [Example 113, 6-{4-[(6-methoxypyridn-3-yl)oxy]piperidin-1-yl}-5-methyl-N-(1,3,4-thiadiazol-2-ylmethyl)pyridazine-3-carboxamide] | 44 nM |
| Cc1c(Cl)nc(CO)nc1N1CCC(Oc2ccc3c(c2)C(=O)CCO3)CC1 [Example 21, 6-((1-(6-chloro-2-(hydroxymethyl)-5-methylpyrimidin-4-yl)piperidin-4-yl)oxy)chroman-4-one] | 57 nM |
| Cc1cc(C(=O)NCc2ccncc2)nnc1N1CCC(Oc2cnn(CC3CC3)c2)CC1 [Example 39, 6-(4-((1-(cyclopropylmethyl)-1H-pyrazol-4-yl)oxy)piperidin-1-yl)-5-methyl-N-(pyridin-4-ylmethyl)pyridazine-3-carboxamide] | 278 nM |
| COc1ccc(OC2CCN(c3nnc(C(=O)NCc4ccncc4Cl)cc3C)CC2)cn1 [Example 154, N-[(3-chloropyridin-4-yl)methyl]-6-{4-[(6-methoxypyridin-3-yl)oxy]piperidin-1-yl}-5-methylpyridazine-3-carboxamide] | 262 nM |
| Cc1ncc(C)c(N2CC[C@@H](Oc3cccc(C#N)c3)[C@H](F)C2)n1 [Example 71, 3-(((3R,4R)-1-(2,5-dimethylpyrimidin-4-yl)-3-fluoropiperidin-4-yl)oxy)benzonitrile] | 135 nM |
| Cc1c(Cl)nc(CO)nc1N1CCC(Oc2cccc(C#N)c2)C(F)(F)C1 (stereo not shown) [Example 23, 3-((1-(6-chloro-2-(hydroxymethyl)-5-methylpyrimidin-4-yl)-3,3-difluoropiperidin-4-yl)oxy)benzonitrile] | 75 nM |
| COC(=O)c1cc(C)c(N2CCC(Oc3ccc4c(c3)COC4)CC2)nc1Cl [Example 267, Methyl 2-chloro-6-(4-((1,3-dihydroisobenzofuran-5-yl)oxy)piperidin-1-yl)-5-methylnicotinate] | 2570 nM |
| COc1ncc(C#N)c(N2CCC(Oc3cccc(C#N)c3)CC2)n1 [Example 88, 4-(4-(3-cyanophenoxy)piperidin-1-yl)-2-methoxypyrimidine-5-carbonitrile] | 1530 nM |
| COc1ccc(OC2CCN(c3nnc(C(=O)N[C@@H]4CCc5cc(F)ccc5C4)cc3C)CC2)cn1 [Example 184B, (R)-N-(6-fluoro-1,2,3,4-tetrahydronaphthalen-2-yl)-6-{4-[(6-methoxypyridin-3-yl)oxy]piperidin-1-yl}-5-methylpyridazine-3-carboxamide] | 1010 nM |
| COc1ccc(OC2CCN(c3nnc(C(=O)NCc4ccccc4)cc3C)CC2)cn1 [Example 193, N-benzyl-6-{4-[(6-methoxypyridin-3-yl)oxy]piperidin-1-yl}-5-methylpyridazine-3-carboxamide] | 35 nM |
| COc1ccc(OC2CCN(c3nnc(C(=O)NCc4ccncc4)cc3C)CC2)cn1 [Example 116, 6-{4-[(6-methoxypyridin-3-yl)oxy]piperidin-1-yl}-5-methyl-N-(pyridin-4-ylmethyl)pyridazine-3-carboxamide] | 79 nM |
| CCOC(=O)c1cc(C)c(N2CCC(Oc3ccc(OC)nc3)CC2)nn1 [Example 105A, ethyl 6-(4-((6-methoxypridin-3-yl)oxy)piperidin-1-yl)-5-methylpyridazine-3-carboxylate] | 170 nM |
| Cc1c(Cl)ncnc1N1CCC(Oc2ccc3nn(C)cc3c2)CC1 [Example 66, 5-((1-(6-chloro-5-methylpyrimidin-4-yl)piperidin-4-yl)oxy)-2-methyl-2H-indazole] | 106 nM |
| COc1ccc(OC2CCN(c3nnc(C(=O)NC4CCCC4)cc3C)CC2)cn1 [Example 169, N-cyclopentyl-6-{4-[(6-methoxypyridin-3-yl)oxy]piperidin-1-yl}-5-methylpyridazine-3-carboxamide] | 459 nM |
| COc1ccc(OC2CCN(c3ncc(C#N)c(Cl)c3C)CC2)cn1 [Example 34, 4-chloro-5-(4-((6-methoxypyridin-3-yl)oxy)piperidin-1-yl)-5-methylnicotinonitrile] | 217 nM |
| Cc1c(Cl)nc(CO)nc1N1CCC(Oc2ccc3[nH]ccc3c2)CC1 [Example 97, (4-(4-((1H-indol-5-yl)oxy)piperidin-1-yl)-6-chloro-5-methylpyrimidin-2-yl)methanol] | 68 nM |
| Cc1c(-c2ccc(F)cc2)ncnc1N1CCC(Oc2cccc(C#N)c2)CC1 [Example 254, 3-((1-(6-(4-fluorophenyl)-5-methylpyrimidin-4-yl)piperidin-4-yl)oxy)benzonitrile] | 2470 nM |

| SMILES | EC50 |
| --- | --- |
| COc1ccc(OC2CCN(c3ncnc(N4CCCC4)c3C)CC2)cn1 [Example 237, 4-(4-((6-methoxypyridin-3-yl)oxy)piperidin-1-yl)-5-methyl-6-(pyrrolidin-1-yl)pyrimidine] | 1820 nM |
| COC(=O)c1cnc(N2CCC(Oc3ccc(OC)nc3)CC2)c(C)c1 [Example 37, methyl 6-(4-((6-methoxypyridin-3-yl)oxy)piperidin-1-yl)-5-methylnicotinate] | 225 nM |
| Cc1cc(C(=O)NC2C3CC2C3)nnc1N1CCC(Oc2ccc3c(c2)C(=O)N(C)C3)CC1 (stereo not shown) [Example 157, N-bicyclo[1.1.1]pent-2-yl-5-methyl-6-{4-[(2-methyl-3-oxo-2,3-dihydro-1H-isoindol-5-yl)oxy]piperidin-1-yl}pyridazine-3-carboxamide] | 277 nM |
| COc1ccc(OC2CCN(c3nc(C(=O)NC4CCCc5cnccc54)nc(Cl)c3C)CC2)cn1 (stereo not shown) [Example 214, 4-chloro-6-(4-((6-methoxypyridin-3-yl)oxy)piperidin-1-yl)-5-methyl-N-(5,6,7,8-tetrahydroisoquinolin-5-yl)pyrimidine-2-carboxamide] | 770 nM |
| Cc1cc(C(=O)N2CCc3snc(-c4cccnc4)c3C2)nnc1N1CCC(Oc2cccc(C#N)c2)CC1 [Example 204, 3-[(1-{4-methyl-6-[(3-pyridin-3-yl-6,7-dihydroisothiazolo[4,5-c]pyridin-5(4H)-yl)carbonyl]pyridazin-3-yl}piperidin-4-yl)oxy]benzonitrile] | 1150 nM |
| C=Cc1ncnc(N2CCC(Oc3cccc(C#N)c3)CC2)c1C [Example 245, 3-((1-(5-methyl-6-vinylpyrimidin-4-yl)piperidin-4-yl)oxy)benzonitrile] | 484 nM |
| COc1ccc(OC2CCN(c3nc(C(=O)N[C@H]4CCCc5ccccc54)nc(Cl)c3C)CC2)cn1 [Example 224, (S)-4-chloro-6-(4-((6-methoxypyridin-3-yl)oxy)piperidin-1-yl)-5-methyl-N-(1,2,3,4-tetrahydronaphthalen-1-yl)pyrimidine-2-carboxamide] | 4850 nM |
| CCOC(=O)c1cc(C)c(N2CCC(Oc3cccc(C#N)c3)CC2)nn1 [Example 105, ethyl 6-(4-(3-cyanophenoxy)piperidin-1-yl)-5-methylpyridazine-3-carboxylate] | 58 nM |
| COc1ccc(OC2CCN(c3nnc(C(=O)NCc4ccc5c(c4)OCO5)cc3C)CC2)cn1 [Example 166, N-(1,3-benzodioxol-5-ylmethyl)-6-{4-[(6-methoxypyridin-3-yl)oxy]piperidin-1-yl}-5-methylpyridazine-3-carboxamide] | 400 nM |
| COc1ccc(OC2CCN(c3nnc(C(=O)NCc4ccn(C)n4)cc3C)CC2)cn1 [Example 134, 6-{4-[(6-methoxypyridin-3-yl)oxy]piperidin-1-yl}-5-methyl-N-[(1-methyl-1H-pyrazol-3-yl)methyl]pyridazine-3-carboxamide] | 151 nM |
| CNC(=O)c1cc(C)c(N2CCC(Oc3ccc(OC)nc3)CC2)nc1C [Example 189, 6-{4-[(6-methoxypyridin-3-yl)oxy]piperidin-1-yl}-N,2,5-trimethylpyridine-3-carboxamide] | 1870 nM |
| COCc1nc(Cl)c(C)c(N2CCC(Oc3ccc(OC)nc3)CC2)n1 [Example 78, 4-chloro-2-(methoxymethyl)-6-(4-((6-methoxypyridin-3-yl)oxy)piperidin-1-yl)-5-methylpyrimidine] | 187 nM |
| COc1ccc(OC2CCN(c3nc(C(=O)NC(C)(C)c4ccncc4)nc(Cl)c3C)CC2)cn1 [Example 220, 4-chloro-6-(4-((6-methoxypyridin-3-yl)oxy)piperidin-1-yl)-5-methyl-N-(2-(pyridin-4-yl)propan-2-yl)pyrimidine-2-carboxamide] | 1430 nM |
| Cc1c(Cl)nc(CO)nc1N1CCC(Oc2ccc3c(c2)NCCO3)CC1 [Example 27, (4-chloro-6-(4-((3,4-dihydro-2H-benzo[b][1,4]oxazin-6-yl)oxy)piperidin-1-yl)-5-methylpyrimidin-2-yl)methanol] | 112 nM |
| COc1ccc(OC2CCN(c3nc(C)nc(Cl)c3C)CC2)cn1 [Example 1, 4-Chloro-6-(4-((6-methoxypyridin-3-yl)oxy)piperidin-1-yl)-2,5-dimethylpyrimidine] | 191 nM |
| Cc1c(Cl)nc(CO)nc1N1CCC(Oc2ccc(S(C)(=O)=O)cc2)CC1 [Example 8, (4-chloro-5-methyl-6-(4-(4-(methylsulfonyl)phenoxy)piperidin-1-yl)pyrimidin-2-yl)methanol] | 1360 nM |
| Cc1c(Cl)nc(CO)nc1N1CCC(Oc2ccc3ncn(C)c(=O)c3c2)CC1 [Example 6, 6-((1-(6-chloro-2-(hydroxymethyl)-5-methylpyrimidin-4-yl)piperidin-4-yl)oxy)-3-methylquinazolin-4(3H)-one] | 976 nM |
